The text below walks through data of patent US20150099800A1, “NOVEL LIPASE INHIBITORS, REPORTER SUBSTRATES AND USES THEREOF” (Northeastern University, priority 2012, published 2015).

Broadly, the inhibition is the drop in the measured response relative to a control, in per cent.

The target in one assay is T1, rFAAH (Rattus norvegicus, UniProt P97612).
T1 construct: His (N); made in house; host or cells: E. coli (cell line provided by the Cravatt group)
T1 sequence (P97612 30-579 limits assumed): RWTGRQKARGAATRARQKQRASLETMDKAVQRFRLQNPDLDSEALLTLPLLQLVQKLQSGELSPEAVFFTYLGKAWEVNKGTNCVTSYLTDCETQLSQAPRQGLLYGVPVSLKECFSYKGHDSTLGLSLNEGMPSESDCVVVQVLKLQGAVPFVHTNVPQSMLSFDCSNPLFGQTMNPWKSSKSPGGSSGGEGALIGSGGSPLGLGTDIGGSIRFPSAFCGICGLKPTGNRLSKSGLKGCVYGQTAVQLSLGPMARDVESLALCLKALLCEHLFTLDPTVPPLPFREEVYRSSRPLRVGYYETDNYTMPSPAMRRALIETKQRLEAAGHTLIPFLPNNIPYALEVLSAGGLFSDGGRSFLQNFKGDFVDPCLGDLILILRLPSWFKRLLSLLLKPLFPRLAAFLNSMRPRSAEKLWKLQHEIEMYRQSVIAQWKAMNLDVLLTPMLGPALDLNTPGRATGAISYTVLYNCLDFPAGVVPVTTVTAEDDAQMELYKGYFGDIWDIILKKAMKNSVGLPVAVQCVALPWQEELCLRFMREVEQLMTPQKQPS
The experiment in a line: rFAAH coumarin substrate fluorescence assay. It counts as biochemical.

Assay [1] addresses T2, hDAGLα (Homo sapiens, UniProt Q9Y4D2).
T2 sequence (Q9Y4D2 1-1042): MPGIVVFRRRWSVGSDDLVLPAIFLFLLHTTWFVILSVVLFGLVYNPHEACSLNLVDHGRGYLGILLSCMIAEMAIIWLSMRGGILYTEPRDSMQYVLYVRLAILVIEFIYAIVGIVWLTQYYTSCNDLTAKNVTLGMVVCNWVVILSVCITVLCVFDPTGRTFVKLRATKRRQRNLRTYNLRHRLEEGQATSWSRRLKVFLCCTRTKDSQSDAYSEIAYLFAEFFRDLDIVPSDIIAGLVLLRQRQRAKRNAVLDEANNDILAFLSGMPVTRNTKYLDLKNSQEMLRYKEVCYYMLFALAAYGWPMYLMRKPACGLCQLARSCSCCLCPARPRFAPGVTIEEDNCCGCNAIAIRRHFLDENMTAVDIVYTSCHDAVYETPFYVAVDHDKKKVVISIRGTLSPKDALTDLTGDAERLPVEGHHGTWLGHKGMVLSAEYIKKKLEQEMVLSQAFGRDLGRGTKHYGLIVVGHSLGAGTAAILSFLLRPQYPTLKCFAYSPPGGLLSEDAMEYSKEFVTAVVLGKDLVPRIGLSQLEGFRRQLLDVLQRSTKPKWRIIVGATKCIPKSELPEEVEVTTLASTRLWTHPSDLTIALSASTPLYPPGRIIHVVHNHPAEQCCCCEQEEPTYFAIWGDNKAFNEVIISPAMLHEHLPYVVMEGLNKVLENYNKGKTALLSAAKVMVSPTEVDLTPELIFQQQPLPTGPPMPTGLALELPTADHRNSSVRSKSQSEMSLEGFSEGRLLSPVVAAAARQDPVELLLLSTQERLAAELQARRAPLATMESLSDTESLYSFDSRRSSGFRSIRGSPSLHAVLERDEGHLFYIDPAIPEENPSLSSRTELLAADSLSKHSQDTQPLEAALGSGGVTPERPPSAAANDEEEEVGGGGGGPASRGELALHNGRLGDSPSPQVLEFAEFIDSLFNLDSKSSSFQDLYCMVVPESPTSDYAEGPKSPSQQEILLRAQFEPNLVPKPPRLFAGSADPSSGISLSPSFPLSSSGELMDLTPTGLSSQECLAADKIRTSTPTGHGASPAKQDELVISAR

A further assay deals with T3, MAGL (Homo sapiens, UniProt Q99685).
T3 sequence (Q99685 1-303): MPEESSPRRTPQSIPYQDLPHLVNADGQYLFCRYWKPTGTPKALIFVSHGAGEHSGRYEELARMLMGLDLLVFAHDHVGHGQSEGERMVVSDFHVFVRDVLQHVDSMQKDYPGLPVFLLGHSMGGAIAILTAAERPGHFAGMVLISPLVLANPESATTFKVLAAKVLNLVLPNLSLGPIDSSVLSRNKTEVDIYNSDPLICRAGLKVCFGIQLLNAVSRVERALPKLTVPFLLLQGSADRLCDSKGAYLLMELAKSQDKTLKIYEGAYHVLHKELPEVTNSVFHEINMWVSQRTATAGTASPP
The experiment in a line: hMAGL coumarin substrate fluorescence assay. In kind it is biochemical. Further details: The N-terminal his-tagged full length human monoacylglycerol lipase used; His (N); made in house; host or cells: E. coli.

Assay [2] deals with T2, hDAGLα. This is another data set of the same source.
Setting [3] is: 10 μM, 0.05% Triton X-100 present.

Structures are written as SMILES. Read-outs that look alike come from different tables or passages of the source.

Turning to `CCCCCCCCCCC[C@@H](C[C@@H]1OC(=O)[C@H]1CCCCCC)OC(=O)[C@H](CC(C)C)NC=O` [Compound 3, tetrahydrolipstatin], the inhibition at 10 µM is 6% at rFAAH (read-out: rFAAH inhibition at 10 μM (%)) and 47% on MAGL (read-out: hMAGL inhibition at 10 μM (%)). Further, the “inhibition of hDAGLα at 10 μM” value at hDAGLα [1] (10 μM) was “complete inhibition”.

For `CCCCCCCCCCCC(CC1OC(=O)C1CCCCCC)OC(=O)C(NC=O)C(C)CC` (stereo not shown) [Compound 6], the “rFAAH inhibition at 10 μM (%)” value on rFAAH (10 μM) turned out to be 28%. Moreover, the “hDAGLα inhibition at 10 μM TLC (with Triton X-100) (%)” value (“hDAGLα inhibition at 10 μM TLC … (%)” below) on hDAGLα [1] (setting [3]) is reported as “(78^A) %”. Also, on hDAGLα [2] (10 μM), the “hDAGLα inhibition at 10 μM (0.05% Triton X-100) (%), FRET” value came to 98%. Further, the “hDAGLα inhibition at 10 μM detergent free (%), FRET” value on hDAGLα [2] (10 μM, detergent free) is 90%. Further, the “hMAGL inhibition at 10 μM (%)” value on MAGL (10 μM) is on record as 39%.

With `CCCCCCCCCCC[C@@H](C[C@@H]1OC(=O)[C@H]1CCCCCC)OC(=O)[C@H](NC=O)[C@@H](C)CC` [Compound 7], the “rFAAH inhibition at 10 μM (%)” value at rFAAH (10 μM) came out at 0%. The “hDAGLα inhibition at 10 μM TLC … (%)” value on hDAGLα [1] (setting [3]) is given as “(86^A) %”. Further, the “hDAGLα inhibition at 10 μM (0.05% Triton X-100) (%), FRET” value on hDAGLα [2] (10 μM) came to 98%. Besides, the “hDAGLα inhibition at 10 μM detergent free (%), FRET” value on hDAGLα [2] (10 μM, detergent free) is 90%. Also, at MAGL (10 μM), the “hMAGL inhibition at 10 μM (%)” value amounted to 42%.

With `O=C(Oc1ccc([N+](=O)[O-])cc1)N1CCC(C(O)(c2ccc3c(c2)OCO3)c2ccc3c(c2)OCO3)CC1` [JZL184], the “rFAAH inhibition at 10 μM (%)” value at rFAAH is given as 97^E %. On hDAGLα [1], the “hDAGLα inhibition at 10 μM TLC … (%)” value was “(37^B) %” and the “inhibition of hDAGLα in radio-TLC assays” value is reported as “poor inhibitors”. Further, on hDAGLα [2], the “hDAGLα inhibition at 10 μM detergent free (%), FRET” value is 59, 44° % and the “hDAGLα inhibition at 10 μM detergent free (%), FRET, marker °” value is listed as 59, 44° %. Moreover, the “hMAGL inhibition at 10 μM (%)” value on MAGL is 100^F %.
